Data published in patent publication US20260355180A1, “COMPOSITIONS AND METHODS FOR SPLICEOSOME-TARGETED THERAPIES” (Institute for Cancer Research d/b/a The Research Institute …, priority 2022, published 2026).

Key:
MEF ΔZBP1 cells = assay: pMLKL western blot / necroptosis, MEF ΔZBP1; format: cell-based, mouse; conditions: 2.5 nM PlaB, 18 hours
Protocol: (§1) FIG. 5A-5E: SF3B1 perturbation upregulates A-RNA and Z-nucleic acids in MEFs. (FIG. 5A) 5 nM of PlaB induces A-RNA and Z-Nucleic acids in ΔZBP1 MEF cells. (FIG. 5B) Quantification of A-RNA and Z-Nucleic acids. […] Plots of signal intensity are mean±SEM, two-tailed unpaired Student's t test *p<0.05, ***p<0.001, ****p<0.0001. 18 hours of PlaB treatment for IF, WB and rescue experiments. IF: 5 nM PlaB, WB and rescue experiments: 2.5 nM PlaB.
(§2) Since induction of Z-nAs can result in ZBP1-dependent necroptosis, we analyzed induction of necroptosis in necroptotic competent MEFs using spliceosome inhibition. […] We also determined that MEFs ΔZBP1, WT, and Flag-ZBP1 cells treated with PlaB began dying within 24hours after treatment. With MEF Flag-ZBP1 cells showing only 20% survival after 24 hours (FIG. 16).

RPPM631 cells = assay: A-RNA and Z-NA accumulation in RPPM631 cells; format: cell-based, mouse; conditions: 25 nM PLAB
Protocol: Additionally, SF3B1 inhibition was directly compared to SF3B1 knockout in the mouse SCLC cell line RPPM631. RPPM631 cells were treated with 25 nM PLAB and analyzed for their accumulation of Z-NA and A-RNA. […] (FIG. 12) Next, SF3B1-KO RPPM631 cells were generated and analyzed using immunc-fluorescence technique.

H446 cells = assay: MAVS knock out rescue of PlaB-mediated cell death, H446; format: cell-based, human; conditions: MAVS KO H446; data not shown
Source text: (§3) Currently, ZBP1 and ADAR1 are the only two known proteins harbor Zα and interact with Z-NAs^104-109.

H446 SCLC cells = assay: RIPK1 depletion rescue of PlaB cytotoxicity, H446; format: cell-based, human; conditions: 18 hours of PlaB, RIPK1 depleted H446
Protocol: FIG. 2A) SCLC cell lines (H446 and H82) and immortalized fibroblasts (FC1010 and HS68) cell survival curves after 72 hours of PlaB treatment. FIG. 2B) RIPK1 depletion rescues H82 and H446 cell survival after 18 hours of PlaB treatment. FIG. 2C) Western blot showing RIPK1 protein depletion. Mean±SEM, Welch's t test *p<0.05, **p<0.01.
Cancer deregulates splicing^31,32, and we hypothesized that hyper-proliferative SCLCs are dependent on splicing machineries for increased tumorigenicity^90.

MEF Flag-ZBP1 cells [1] = assay: Survival of PlaB treated MEF Flag-ZBP1; format: cell-based, mouse
Protocol: (§4) FIG. 16: Analysis of the effect of spliceosome inhibition on necroptosis in WT MEF cells. EV refers to cells treated with an empty vector.
as §2

pTBK1 protein = assay: Western blot of pTBK1; format: cell-based
Source text: FIG. 7: Western Blot analysis showing pTBK1 protein depletion.
Based on the publications and our findings, TNF sensing can at least partially rescue spliceosome perturbation mediated cell death.

WT MEF cells = assay: Survival of PlaB treated MEF WT; format: cell-based, mouse
Protocol: as §4, §2

H82 cells = assay: MAVS knock out rescue of PlaB-mediated cell death, H82; format: cell-based; conditions: MAVS KO H82; data not shown
Source text: as §3

H446 KO cells = assay: CytoToxicity of PlaB in TNFR1-, TRADD-, FADD-, CASP8-KO H446 cells (trypan blue); format: cell-based, human; conditions: 2.5 nM PlaB, 18 hrs
Source text: […]: CytoToxicity analysis of PlaB in TNFR1-KO and TRADD-KO H82 cells […] and H446 cells (FIG. 16B). CytoToxicity analysis of PlaB in FADD-KO and CASP8-KO H82 cells (FIG. 16C) and H446 cells (FIG. 16D). EV refers to cells treated with an empty vector.
Since RIPK1 mediated apoptosis can be triggered by TNF110, TNFR1 and TRADD-KO SCLC cell lines are generated herein for subsequent studies. Here, we utilize CRISPR-Cas9 KO to effectively knockout TNFR1 and TRADD in SCLC cells. To confirm depletion of TNFR1 and TRADD proteins, cell lysates are collected and western blot analysis is performed. The following experiments are performed using the TNFR1 and TRADD-KO SCLC cells generated above.
H82 and H446 WT and TNFR1 and TRADD-KO cells generated above are treated with DMSO or 2.5 nM PlaB for 18 hrs. Then, the cells are counted using 0.4% trypan blue solution assessing total viable cells and the percent of cell survived with the H82 and H446 WT cells is compared. (FIG. 15A-15B) This allows us to confirm whether TNF is partially or fully responsible for PlaB-mediated cell death in SCLC cell lines.
Additionally, we analyzed the role played by FADD and CAPS8 in rescuing H82 and H446 cells from PlaB induced toxicity. Using the methods described above for the generation of TNFR1 and TRADD-KO cells, H82 and H446 FADD-KO cells and H82 and H446 CASP8-KO cells were generated. These cells were then treated with DMSO or 2.5 nM PlaB for 18 hrs and compared to WT H82 and H446 cells. […] (FIG. 15C and FIG. 15D)

MEF ΔZα cells = assay: pMLKL western blot / necroptosis, MEF ΔZα; format: cell-based, mouse; conditions: 2.5 nM PlaB, 18 hours
Protocol: as §1, §2

H82 SCLC cells [2] = assay: IFN response by rRT-qPCR, H82; format: cell-based; conditions: dose-dependent
Source text: (§5) FIG. 3A-3D: SF3B1 inhibition induces a potent IFN response and increases expression of IFN-regulated proteins. […] Mean±SEM, two-tailed unpaired Student's t test *p<0.05, **p<0.01, ***p<0.001, ****p<0.0001.
(§6) We also observed that SF3B1 inhibition triggers robust anti-tumor response and upregulates IFN-β, IFN-γ, and IFN-responsive genes by real-time reverse-transcription quantitative polymerase chain reaction (rRT-qPCR) in H446 and H82 cells (FIGS. 3A and 3B). […] These observations indicate that spliceosome inhibition is useful as a targeted therapy for SCLCs.

MEF Flag-ZBP1 cells [3] = assay: A-RNA and Z-NA accumulation in MEF Flag-ZBP1; format: cell-based, mouse; conditions: SF3B1 inhibition
H82 SCLC cells [4] = assay: Antigen (HLA-ABC) and PD-L1 expression, H82; format: cell-based; conditions: 48 hours of 0.5 nM PlaB
Source text: as §5, §6

CCC(O)C(C)C1OC1CC(C)C=CC=C(C)C1OC(=O)CC(O)CCC(C)(O)C(OC(C)=O)C=CC1C (centres unmarked) [PlaB, Pladienolide B]
pMLKL (necroptosis) (MEF ΔZBP1 cells): not triggered
A-RNA accumulation (RPPM631 cells): increase
Z-NA accumulation (RPPM631 cells): increase
rescue of PlaB-mediated cell death by MAVS knock out (H446 cells): only minimally rescue
cell survival upon RIPK1 depletion (H446 SCLC cells): rescues
time after treatment at which cells began dying (MEF Flag-ZBP1 cells [1]; MEF Flag-ZBP1): ≤ 24 h
survival (MEF Flag-ZBP1 cells [1]; MEF Flag-ZBP1, after 24 hours): 20%
pTBK1 protein (pTBK1 protein): dramatic reduction
time after treatment at which cells began dying (WT MEF cells): ≤ 24 h
rescue of PlaB-mediated cell death by MAVS knock out (H82 cells): only minimally rescue
rescue from PlaB toxicity by CASP8-KO (H446 KO cells; H446 CASP8-KO): effectively rescued
rescue from PlaB toxicity by FADD-KO (H446 KO cells; H446 FADD-KO): effectively rescued
rescue from PlaB toxicity by TNFR1-KO (H446 KO cells; H446 TNFR1-KO): effectively rescued
rescue from PlaB toxicity by TRADD-KO (H446 KO cells; H446 TRADD-KO): effectively rescued
pMLKL (necroptosis) (MEF ΔZα cells; MEF ΔZα): not triggered
PlaB-mediated necroptosis (MEF ΔZα cells; MEF ΔZα mutant): avoid PlaB-mediated necroptosis
IFN response (H82 SCLC cells [2]): induces potent IFN response
A-RNA and Z-NA accumulation (MEF Flag-ZBP1 cells [3]): accumulation
PD-L1 expression (H82 SCLC cells [4]): effectively upregulates
antigen expression (H82 SCLC cells [4]): effectively upregulates
